{"source": "paper PMC2812670", "about": "(Experimental neurology, 2009)", "biological_target": "T1, MAO-A (Mus musculus, UniProt Q64133)", "T1 sequence (Q64133 1-526)": "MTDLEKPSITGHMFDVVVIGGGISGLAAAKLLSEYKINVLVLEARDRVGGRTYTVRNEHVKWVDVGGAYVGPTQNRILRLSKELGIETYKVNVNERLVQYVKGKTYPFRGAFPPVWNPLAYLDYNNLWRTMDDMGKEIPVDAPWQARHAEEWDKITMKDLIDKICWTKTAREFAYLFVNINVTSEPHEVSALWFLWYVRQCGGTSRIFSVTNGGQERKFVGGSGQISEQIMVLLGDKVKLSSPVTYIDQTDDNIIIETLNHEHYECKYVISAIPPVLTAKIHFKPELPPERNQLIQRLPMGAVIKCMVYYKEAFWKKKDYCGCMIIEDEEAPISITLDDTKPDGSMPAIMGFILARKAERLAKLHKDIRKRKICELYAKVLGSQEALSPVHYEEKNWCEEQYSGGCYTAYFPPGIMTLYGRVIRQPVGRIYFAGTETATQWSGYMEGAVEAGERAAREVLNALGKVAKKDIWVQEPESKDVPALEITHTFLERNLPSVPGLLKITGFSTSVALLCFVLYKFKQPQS", "test": "Amplex Red MAO-A activity assay", "format": "biochemical", "data": [{"smiles": "C#CCN(C)CCCOc1ccc(Cl)cc1Cl", "note": "[clorgyline]", "values": [{"measurement": "Amplex Red MAO-A activity assay (tyramine substrate) in mouse brain homogenates,", "result": 1, "unit": "µM"}]}]}
